Reference: patent EP0428423A2, “Aryloxy alkyl benzenes, processes for their preparation and pharmaceutical compositions containing them” (LIPHA S.A., priority 1989, dated 1991)
Read-outs that look alike come from different tables or passages of the source.

Legend:
COTRANSPORT Na-K = target: T1, COTRANSPORT Na-K (Homo sapiens, UniProt P55011); test: Na-K cotransport of human erythrocytes; type: cell-based, ERYTHROCYTES HUMAINS
T1 construct: systèmes de transport du sodium et du potassium des érythrocytes humains; endogenous in cells; host or cells: human erythrocytes
T1 sequence (P55011 1-1212): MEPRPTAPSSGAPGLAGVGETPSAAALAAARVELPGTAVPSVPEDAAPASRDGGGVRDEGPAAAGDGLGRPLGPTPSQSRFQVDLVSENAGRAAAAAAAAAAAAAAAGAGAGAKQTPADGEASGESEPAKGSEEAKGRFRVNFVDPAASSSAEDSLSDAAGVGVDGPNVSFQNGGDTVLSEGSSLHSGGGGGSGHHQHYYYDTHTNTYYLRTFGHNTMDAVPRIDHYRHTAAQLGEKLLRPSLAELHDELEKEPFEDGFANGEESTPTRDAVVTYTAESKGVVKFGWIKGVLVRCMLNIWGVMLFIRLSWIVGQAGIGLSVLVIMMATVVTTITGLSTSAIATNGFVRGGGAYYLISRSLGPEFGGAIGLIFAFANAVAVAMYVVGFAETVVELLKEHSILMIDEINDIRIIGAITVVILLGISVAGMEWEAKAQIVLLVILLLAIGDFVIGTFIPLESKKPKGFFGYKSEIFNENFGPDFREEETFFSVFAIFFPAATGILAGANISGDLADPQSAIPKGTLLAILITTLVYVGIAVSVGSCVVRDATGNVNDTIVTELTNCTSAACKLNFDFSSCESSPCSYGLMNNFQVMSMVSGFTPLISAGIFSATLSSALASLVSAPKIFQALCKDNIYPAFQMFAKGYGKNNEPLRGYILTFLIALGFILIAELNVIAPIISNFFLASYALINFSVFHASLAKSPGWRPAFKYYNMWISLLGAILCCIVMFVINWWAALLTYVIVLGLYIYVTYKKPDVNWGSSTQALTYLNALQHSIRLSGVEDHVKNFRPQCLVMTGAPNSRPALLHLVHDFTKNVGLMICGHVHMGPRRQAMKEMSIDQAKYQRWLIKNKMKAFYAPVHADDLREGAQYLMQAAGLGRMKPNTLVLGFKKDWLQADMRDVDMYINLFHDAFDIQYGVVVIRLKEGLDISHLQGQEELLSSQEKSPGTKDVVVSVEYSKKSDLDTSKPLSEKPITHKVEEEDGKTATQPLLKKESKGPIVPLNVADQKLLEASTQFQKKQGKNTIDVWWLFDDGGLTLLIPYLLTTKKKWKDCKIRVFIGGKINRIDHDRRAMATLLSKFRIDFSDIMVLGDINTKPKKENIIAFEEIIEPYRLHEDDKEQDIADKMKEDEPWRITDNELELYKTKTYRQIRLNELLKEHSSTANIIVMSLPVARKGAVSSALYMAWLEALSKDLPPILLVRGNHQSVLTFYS
Excerpt: Cet effet a été étudié selon la méthodologie décrite par G. GARAY et coll. dans Naunyn-Schmidberg's Arch. Pharmakol. […] Pharm.

[1] = system: plasmas riches en plaquettes provenant de sang de rat; test: Platelet anti-aggregation in vitro, ADP-induced (Born aggregometer); type: cell-based
Method: Les études ont été réalisées sur des plasmas riches en plaquettes provenant de sang de rat, l'agrégation étant induite par addition d'acide Adénosine diphosphorique. Les courbes néphélométriques d'agrégation sont obtenues en utilisant un agrégomètre de type BORN, le plasma étant placé en incubation à 37° avec agitation continue de 1100 t/mn (cf. BORN G.V.R et CROSS J. - J. Physiol. 168 (1962) 178.

RAT = test: Diuretic activity in the rat (hourly urine volume, sodium and potassium assay); type: in vivo; conditions: for minimal effective dose: po, read-out: Dose minimale active; for Pouvoir diurétique en % / Rapport Na/K en %: PO, at the dose (minimal active dose)
Excerpt: (§1) d'urine sont déterminés toutes les heures. Le dosage de sodium et du potassium est effectué par spectrophotométrie.

SOURIS = test: Diuretic activity in the mouse (hourly urine volume, sodium and potassium assay); type: in vivo; conditions: for minimal effective dose: Mus musculus, po, read-out: Dose minimale active; for Pouvoir diurétique en % / Rapport Na/K en %: PO, at the dose (minimal active dose)
Excerpt: as §1

ECHANGEUR D'ANIONS = target: T2, ECHANGEUR D'ANIONS (Homo sapiens, UniProt P02730); test: Anion exchanger of human erythrocytes; type: cell-based, ERYTHROCYTES HUMAINS; conditions: for IC50: read-out: EFFET SUR L'ECHANGEUR D'ANIONS IC 50
T2 construct: systèmes de transport du sodium et du potassium des érythrocytes humains; endogenous in cells; host or cells: human erythrocytes
T2 sequence (P02730 1-911): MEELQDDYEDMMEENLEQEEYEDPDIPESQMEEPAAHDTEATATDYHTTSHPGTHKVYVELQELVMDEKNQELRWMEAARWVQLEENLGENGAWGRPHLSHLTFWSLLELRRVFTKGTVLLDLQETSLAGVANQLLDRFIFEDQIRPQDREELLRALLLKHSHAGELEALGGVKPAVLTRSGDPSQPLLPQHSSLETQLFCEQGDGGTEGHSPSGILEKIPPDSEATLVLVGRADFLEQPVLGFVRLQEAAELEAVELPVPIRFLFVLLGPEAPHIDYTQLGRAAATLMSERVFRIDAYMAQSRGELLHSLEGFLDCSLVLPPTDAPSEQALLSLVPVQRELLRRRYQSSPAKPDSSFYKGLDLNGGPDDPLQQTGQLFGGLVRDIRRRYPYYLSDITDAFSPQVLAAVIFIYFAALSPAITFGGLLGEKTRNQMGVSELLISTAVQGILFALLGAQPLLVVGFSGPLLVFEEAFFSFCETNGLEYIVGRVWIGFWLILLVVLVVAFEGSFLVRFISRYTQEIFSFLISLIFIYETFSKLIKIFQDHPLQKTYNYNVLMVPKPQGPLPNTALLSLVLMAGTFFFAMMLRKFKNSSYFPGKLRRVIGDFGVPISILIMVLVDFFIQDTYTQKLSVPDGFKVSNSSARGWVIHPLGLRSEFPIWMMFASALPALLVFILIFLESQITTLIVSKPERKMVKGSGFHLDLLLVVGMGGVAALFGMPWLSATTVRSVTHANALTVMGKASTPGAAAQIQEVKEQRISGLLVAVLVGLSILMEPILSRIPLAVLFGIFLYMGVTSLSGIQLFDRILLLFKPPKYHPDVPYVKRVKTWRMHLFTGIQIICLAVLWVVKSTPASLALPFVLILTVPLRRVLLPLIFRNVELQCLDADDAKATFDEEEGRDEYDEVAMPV
Excerpt: Cet effet a été étudié selon la méthodologie décrite par G. GARAY et coll. dans Naunyn-Schmidberg's Arch. Pharmakol. 334 (1986) 202-209 et dans Bioch. Pharm. 33 (1984) 2013-2020.

[2] = human erythrocytes, read-out: EFFET SUR LE COTRANSPORT Na-K IC 50
[3] = in vitro, aggregating agent ADP, rat platelet-rich plasma, 37°, M not defined in the text, mM printed only in the TICLOPIDINE line, read-out: M à 50

Structure (SMILES)	IC50 [1, 3]	IC50 (ECHANGEUR D'ANIONS)	minimal effective dose (RAT; R = RAT, diuretic activity)	also measured
Oc1ccc2ccccc2c1CCOc1ccc(F)cc1 [ex 48]	–	–	25 mg/kg	minimal effective dose (SOURIS; S = SOURIS, diuretic activity): 100 mg/kg
COc1ccc(OC(C)=O)c(CCOc2ccc(F)cc2)c1 [ex 25]	–	120 µM	12 mg/kg	IC50 (COTRANSPORT Na-K; [2]): > 600 µM; minimal effective dose (SOURIS; S = SOURIS, diuretic activity): 25 mg/kg
NC(=O)c1ccc(O)c(CCOc2ccc(F)cc2)c1 [ex 163]	–	–	6 mg/kg	minimal effective dose (SOURIS; S = SOURIS, diuretic activity): 25 mg/kg
Cc1ccc(O)c(CCOc2ccc(F)cc2)c1 [Ex 54]	–	–	–	M à 50 ([1]; in vitro, aggregating agent ADP, rat platelet-rich plasma, 37°, M not defined in the text, mM printed only in the TICLOPIDINE line): inactif
CC(=O)NCCCCCC(=O)Oc1ccccc1CCOc1ccc(F)cc1 [ex 139]	–	–	25 mg/kg	minimal effective dose (SOURIS; S = SOURIS, diuretic activity): 25 mg/kg
Cc1ccc(CCOc2ccc(F)cc2)c(O)c1C [Ex 78]	0.7 mM	–	–	–
CCCCNc1cc(C(=O)O)cc(S(N)(=O)=O)c1Oc1ccccc1 [BUMETANIDE, reference compound]	–	300 µM	–	IC50 (COTRANSPORT Na-K): 0.66 µM
Oc1cccc(CCOc2ccc(F)cc2)c1 [Ex 174]	0.4 mM	–	–	–
COc1ccc(O)c(CCOc2ccc(Cl)cc2)c1 [ex 26]	–	40 µM	50 mg/kg	IC50 (COTRANSPORT Na-K; [2]): 70 µM; minimal effective dose (SOURIS; S = SOURIS, diuretic activity): 100 mg/kg
O=P(O)(O)Oc1ccccc1CCOc1ccc(F)cc1 [ex 134]	–	–	–	EFFET SUR LE COTRANSPORT Na-K IC 50 (COTRANSPORT Na-K; human erythrocytes): Non actif; IC50 ([1]; Rattus norvegicus, Platelet, read-out: M à 50): 1.3 mM; IC50 ([1]; Rattus norvegicus, Platelet, read-out: V à 50): 1.5 mM; minimal effective dose (RAT; Rattus norvegicus): 6 mg/kg; minimal effective dose (SOURIS): 25 mg/kg; EFFET SUR L'ECHANGEUR D'ANIONS IC 50 (ECHANGEUR D'ANIONS): Non actif
CC(COc1ccc(F)cc1)c1ccccc1O (stereo not drawn) [ex 172]	0.95 mM	75 µM	25 mg/kg	IC50 (COTRANSPORT Na-K; [2]): ~400 µM; minimal effective dose (SOURIS; S = SOURIS, diuretic activity): 100 mg/kg
CC(=O)Oc1c(CCOc2ccc(F)cc2)cccc1C(C)C [Ex 81]	1 mM	–	–	–
Cc1cccc(C)c1NC(=O)c1cc(S(N)(=O)=O)c(Cl)cc1O [XIPAMIDE, reference compound]	–	25 µM	–	–
CC(C)c1ccc(O)c(CCOc2ccc(F)cc2)c1 [Ex 82]	0.55 mM	–	–	–
CC(C)(C)c1ccc(O)c(CCOc2ccc(F)cc2)c1 [Ex 52]	0.75 mM	–	–	–
CCCc1cccc(CCOc2ccc(F)cc2)c1O [Ex 86]	1.55 mM	–	–	–
Oc1cc2c(cc1CCOc1ccc(F)cc1)OCCO2 [ex 107]	–	–	25 mg/kg	minimal effective dose (SOURIS; S = SOURIS, diuretic activity): 100 mg/kg

The next lines start with results.

IC50 [1, 3]	IC50 (ECHANGEUR D'ANIONS)	Structure (SMILES)	minimal effective dose (RAT; R = RAT, diuretic activity)	also measured
0.8 mM	4 µM	Oc1ccccc1CCOc1ccc(F)cc1 [ex 30]	12 mg/kg	IC50 (COTRANSPORT Na-K; [2]): 170 µM; minimal effective dose (SOURIS; S = SOURIS, diuretic activity): 25 mg/kg
0.75 mM	–	Oc1ccc(OCCc2ccccc2O)cc1 [Ex 84]	–	–
0.6 mM	–	Oc1ccccc1CCOc1cccc2ccccc12 [Ex 58]	–	–
0.3 mM	200 µM	Oc1ccccc1CCOc1ccc2ccccc2c1 [ex 56]	–	IC50 (COTRANSPORT Na-K; [2]): 95 µM; Pouvoir diurétique en % (RAT; R = RAT): R : Inactif S : Inactif; Rapport Na/K en % (RAT; R = RAT): R : Inactif S : Inactif; Pouvoir diurétique en % (SOURIS; S = SOURIS): R : Inactif S : Inactif; Rapport Na/K en % (SOURIS; S = SOURIS): R : Inactif S : Inactif
1.1 mM	–	Oc1ccc(Oc2ccccc2)cc1CCOc1ccc(F)cc1 [Ex 100]	–	–
0.7 mM	–	Oc1ccc(O)c(CCOc2ccc(F)cc2)c1 [Ex 102]	–	–
0.5 mM	–	CCOC(=O)c1ccc(OCCc2ccccc2O)cc1 [Ex 90]	–	–
0.5 mM	–	C=CCOc1ccc(CCOc2ccccc2)c(O)c1 [Ex 64]	–	–
1.2 mM	12 µM	Oc1ccc(O)c(CCOc2ccccc2)c1 [ex 42]	12 mg/kg	IC50 (COTRANSPORT Na-K; [2]): 40 µM; Pouvoir diurétique en % (SOURIS; S = SOURIS): Inactif; Rapport Na/K en % (SOURIS; S = SOURIS): Inactif
–	200 µM	Oc1c(CCOc2ccc(F)cc2)ccc2ccccc12 [ex 46]	–	IC50 (COTRANSPORT Na-K; [2]): 95 µM; Pouvoir diurétique en % (RAT; R = RAT): R : Inactif S : Inactif; Rapport Na/K en % (RAT; R = RAT): R : Inactif S : Inactif; Pouvoir diurétique en % (SOURIS; S = SOURIS): R : Inactif S : Inactif; Rapport Na/K en % (SOURIS; S = SOURIS): R : Inactif S : Inactif
0.6 mM	–	O=C(Oc1ccccc1CCOc1ccc(F)cc1)c1cccnc1 [Ex 129]	–	–
1.6 mM	–	Oc1ccccc1CCOc1ccccc1 [Ex 12]	–	–
